Experimental data taken from patent US9770435B2 (EUROSCREEN SA, priority 2013, dated 2017).

System: TNFα secretion from LPS-stimulated PBMC
Assay: Cytokines release from peripheral blood mononuclear cell assay: TNFα
Format: cell-based
Details: Homo sapiens, 3 h
Description: Data are presented as percentage of LPS response.
Data are presented as mean±SEM and the final concentration of each tested compound in the assay is 10 μM. Statistical analysis was performed by 2-way ANOVA followed by Dunnet's comparison to vehicle group, ****p<0.0001.
Cytokines Release from Peripheral Blood Mononuclear Cell Assay
Peripheral blood mononuclear cells (PBMC) are purified from heparinised fresh blood sample on a Lymphoprep gradient. PBMC are plated in 96-well assay plate (2×10^5 cells/well) and stimulated with or without LPS (100 ng/ml) and increasing concentration of compounds of the invention for 3 hours at 37° C. Cell supernatants are recovered after centrifugation and human soluble TNFα, IL-6 or other cytokines, are quantified using ELISA assay (R&D system) according manufacturer's recommendation.
Additional results with compounds of the invention are set out in tabulated form (Table 5).

| SMILES | IC50 |
| --- | --- |
| COc1ncc(-c2ccc(C(=O)N3[C@@H](c4ccccc4Cl)CC[C@H]3C(=O)O)cc2)c(OC)n1 [Compound 161, (2S,5R)-5-(2-chlorophenyl)-1-(4-(2,4-dimethoxypyrimidin-5-yl)benzoyl)pyrrolidine-2-carboxylic acid] | 11.8 µM |
| COc1ncc(-c2ccc(C(=O)N3[C@@H](c4ccccc4Cl)CC[C@H]3C(=O)O)cc2Cl)c(OC)n1 [Compound 325, (2S,5R)-1-(3-chloro-4-(2,4-dimethoxypyrimidin-5-yl)benzoyl)-5-(2-chlorophenyl)pyrrolidine-2-carboxylic acid] | 6 µM |
| COc1ccc(C#N)cc1-c1ccc(C(=O)N2[C@@H](c3ccccc3Cl)CC[C@H]2C(=O)O)cc1 [Compound 345, (2S,5R)-5-(2-chlorophenyl)-1-(5′-cyano-2′-methoxy-[1,1′-biphenyl]-4-carbonyl)pyrrolidine-2-carboxylic acid] | 0.99 µM |
| COc1cc(C#N)c(-c2ccc(C(=O)N3[C@@H](c4ccccc4Cl)CC[C@H]3C(=O)O)cc2)cc1OC [Compound 361, (2S,5R)-5-(2-chlorophenyl)-1-(2′-cyano-4′,5′-dimethoxy-[1,1′-biphenyl]-4-carbonyl)pyrrolidine-2-carboxylic acid] | 5.19 µM |
| N#Cc1ccccc1-c1ccc(C(=O)N2[C@@H](c3ccccc3Cl)CC[C@H]2C(=O)O)cc1F [Compound 390, (2S,5R)-5-(2-chlorophenyl)-1-(2′-cyano-2-fluoro-[1,1′-biphenyl]-4-carbonyl)pyrrolidine-2-carboxylic acid] | 5.52 µM |
| Cc1ccc(C#N)cc1-c1ccc(C(=O)N2[C@@H](c3cccc(F)c3F)CC[C@H]2C(=O)O)cc1 [Compound 421, (2S,5R)-1-(5′-cyano-2′-methyl-[1,1′-biphenyl]-4-carbonyl)-5-(2,3-difluorophenyl)pyrrolidine-2-carboxylic acid] | 2.93 µM |
